Reference: patent US5070089A, “Therapeutic agent for liver disease and piperazine derivatives” (Nippon Chemiphar Co., Ltd., priority 1988, dated 1991)
Read-outs that look alike come from different tables or passages of the source.

How the values were obtained:
[1] = system: acute liver disease caused by CCl4 (Wister-strain rat); assay: Preventive action on deviation of GOT value and GPT value in vivo using model of acute liver disease caused by CCl4; settings: rat, 30 mg/kg, 3 hour before oral CCl4
Method: CCl4 in olive oil (concentration: 50%) was orally administered to a Wister-strain rat (body weight: 170-180 g) fasted for 24 hrs., at a dose of 1 ml/kg, to cause acute liver disease. […] For control group, 1.0% methylcellulose (MC) was administered in place of the piperazine derivative. For normal group, a simple olive oil was administered in place of the CCl4 -containing olive oil. For the administration, the piperazine derivative was employed in the form of a dispersion in aqueous MC solution (concentration: 1.0%). At 24 hours after the administration of CCl4, the rat was abdominally sectioned under ether anesthesia. From the abrominal large vein, a blood was collected. The collected blood was subjected to centrifugal separation at 3,000 r.p.m. for 10 min to obtain its plasma. […] The results are set forth in Table 4 in terms of a ratio (%) of suppression (prevention) of GOT or GPT. In Table 4, "***" means 90-100%, "**" means 60-90%, and "*" means 30-60%. The ratio of suppression is calculated according to the following equation. [formula]

[2] = system: lipid peroxidation in rat hepatocyte; assay: Inhibitory action on lipid peroxidation (rat hepatocyte, TBA color formation, absorbance at 530 nm); format: biochemical; settings: 37° C., 1 hour; for Inhibition ratio (at Final Concentration of Tested Compound) 10^-4 M: final concentration 10^-4 M, 100 µM; for Inhibition ratio (at Final Concentration of Tested Compound) 10^-5 M: final concentration 10^-5 M, 10 µM
Method: A hepatocyte was isolated from rat according to the method of Ui et al (Hiroshi Oka and Tadao Ui: "Isolated Cells--Experimental and Application",page 91). The determination of lipid peroxidation was performed using a died hepatocyte which had been frozen at -85° C. and stored at the temperature and which was melted when the experimental was done. […] The centrifugal tube was shaken at 37° C. for 1 hour for performing a reaction, and then placed into an ice-water bath to terminate the reaction. […] The centrifugal tube was taken out of the ice-water bath and placed in a water bath (kept at 95°-98° C.). The content of the tube was heated in the bath for 1 hour for developing color-formation. After the heating was complete, the content of the tube was cooled and subjected to centrifugal separation. The inhibitory action on lipid peroxidation of the sample was determined by measuring absorbance at 530 nm. The determined inhibitory action is expressed inhibition ratio by percent (%) calculated by the following equation: [formula] In Table 3, the number of the tested compound corresponds to the identical number set forth in Tables 1 and 2 for identifying the compounds of the invention.

[3] = plasma GOT at 24 hours after CCl4, read-out: ratio (%) of suppression (prevention) of GOT
[4] = plasma GPT at 24 hours after CCl4, read-out: ratio (%) of suppression (prevention) of GPT

SMILES | inhibition in vivo at 30 mg/kg [1, 3] [%] | inhibition in vivo at 30 mg/kg [1, 4] [%] | Inhibition ratio (at Final Concentration of Tested Compound) 10^-4 M [2] [%] | Inhibition ratio (at Final Concentration of Tested Compound) 10^-5 M [2] [%] | Inhibition ratio (at Final Concentration of Tested Compound) 10^-4 M ([2]; 60 min) [%]
CSC(=S)N1CCN(Cc2ccccc2)CC1 [Compound 1] | 30 to 60 | 30 to 60 |  |  | 
CSC(=S)N1CCN(Cc2ccccc2Cl)CC1 [Compound 2, Methyl 4-(2-chlorobenzyl)-1-piperazinecarbodithioate] | 30 to 60 |  |  |  | 
CSC(=S)N1CCN(Cc2ccccc2C)CC1 [Compound 3, Methyl 4-(2-methylbenzyl)-1-piperazinecarbodithioate] | 60 to 90 | 60 to 90 |  |  | 
COc1cccc(CN2CCN(C(=S)SC)CC2)c1 [Compound 6, Methyl 4-(3-methoxybenzyl)-1-piperazinecarbodithioate] | 90 to 100 | 90 to 100 |  |  | 
COc1ccc(CN2CCN(C(=S)SC)CC2)cc1 [Compound 7, Methyl 4-(4-methoxybenzyl)-1-piperazinecarbodithioate] | 60 to 90 | 30 to 60 |  |  | 
CSC(=S)N1CCN(Cc2ccccc2SC)CC1 [Compound 9, Methyl 4-(2-methylthiobenzyl)-1-piperazinecarbodithioate] | 60 to 90 | 60 to 90 |  |  | 
CSC(=S)N1CCN(Cc2ccccc2[N+](=O)[O-])CC1 [Compound 10, Methyl 4-(2-nitrobenzyl)-1-piperazinecarbodithioate] | 60 to 90 | 30 to 60 |  |  | 
CSC(=S)N1CCN(Cc2ccccc2N)CC1 [Compound 11, Methyl 4-(2-aminobenzyl)-1-piperazinecarbodithioate] | 90 to 100 | 90 to 100 | 98.6 | 95.5 | 
CSC(=S)N1CCN(Cc2ccccc2N(C)C)CC1 [Compound 13, Methyl 4-(2-dimethylaminobenzyl)-1-piperazinecarbodithioate] | 30 to 60 | 30 to 60 | 98.9 | 95.4 | 
CSC(=S)N1CCN(Cc2cccc(O)c2O)CC1 [Compound 15, Methyl 4-(2,3-dihydroxybenzyl)-1-piperazinecarbodithioate] | 90 to 100 | 90 to 100 |  |  | 
COc1cccc(CN2CCN(C(=S)SC)CC2)c1O [Compound 18, Methyl 4-(2-hydroxy-3-methoxybenzyl)-1-piperazinecarbodithioate] | 60 to 90 | 60 to 90 |  |  | 
COc1ccc(O)c(CN2CCN(C(=S)SC)CC2)c1 [Compound 20, Methyl 4-(2-hydroxy-5-methoxybenzyl)-1-piperazinecarbodithioate] | 60 to 90 | 60 to 90 |  |  | 
CSC(=S)N1CCN(Cc2cc(OC(C)=O)ccc2O)CC1 [Compound 21, Methyl 4-(5-acetoxy-2-hydroxybenzyl)-1-piperazinecarbodithioate] | 60 to 90 | 60 to 90 |  |  | 
COc1ccc(CN2CCN(C(=S)SC)CC2)cc1OC [Compound 31, Methyl 4-(3,4-dimethoxybenzyl)-1-piperazinecarbodithioate] | 60 to 90 | 30 to 60 |  |  | 
CSC(=S)N1CCN(Cc2ccc(OC(C)=O)c(OC(C)=O)c2OC(C)=O)CC1 [Compound 34, Methyl 4-(2,3,4-triacetoxybenzyl)-1-piperazinecarbodithioate] |  | 30 to 60 |  |  | 
COc1ccc(CN2CCN(C(=S)SC)CC2)c(O)c1OC [Compound 35, Methyl 4-(3,4-dimethoxy-2-hydroxybenzyl)-1-piperazinecarbodithioate] | 60 to 90 | 60 to 90 |  |  | 
COc1cc(O)c(CN2CCN(C(=S)SC)CC2)c(OC)c1 [Compound 37, Methyl 4-[(4,6-dimethoxy-2-hydroxy)benzyl]-1-piperazinecarbodithioate] | 60 to 90 | 60 to 90 |  |  | 

SMILES | inhibition in vivo at 30 mg/kg [1, 3] [%] | inhibition in vivo at 30 mg/kg [1, 4] [%] | Inhibition ratio (at Final Concentration of Tested Compound) 10^-4 M [2] [%] | Inhibition ratio (at Final Concentration of Tested Compound) 10^-5 M [2] [%] | Inhibition ratio (at Final Concentration of Tested Compound) 10^-4 M ([2]; 60 min) [%]
CSC(=S)N1CCN(Cc2cc(O)c(O)c(O)c2)CC1 [Compound 40, Methyl 4-(3,4,5-trihydroxybenzyl)-1-piperazinecarbodithioate] |  |  | 92.6 |  | 
CSC(=S)N1CCN(Cc2cc(OC(C)=O)c(OC(C)=O)c(OC(C)=O)c2)CC1 [Compound 42, Methyl 4-(3,4,5-triacetoxybenzyl)-1-piperazinecarbodithioate] |  |  | 71.6 | 71.6 | 
CSC(=S)N1CCN(Cc2c(C)c(O)c(C)c(C)c2O)CC1 [Compound 46, Methyl 4-[(2,5-dihydroxy-3,4,6-trimethyl)benzyl]-1-piperazinecarbodithioate] | 90 to 100 | 90 to 100 |  |  | 
COc1ccc(C(=O)N2CCN(C(=S)SC)CC2)c(OC)c1OC [Compound 56, Methyl 4-(2,3,4-trimethoxybenzoyl)-1-piperazinecarbodithioate] | 90 to 100 | 90 to 100 |  |  | 
COc1ccc(CCN2CCN(C(=S)SC)CC2)c(OC)c1OC [Compound 67, Methyl 4-{2-(2,3,4-trimethoxyphenyl)ethyl}-1-piperazinecarbodithioate] | 30 to 60 | 30 to 60 |  |  | 
CSC(=S)N1CCN(CCc2ccc(O)c(O)c2O)CC1 [Compound 68, Methyl 4-{2-(2,3,4-trihydroxyphenyl)ethyl}-1-piperazinecarbodithioate] | 60 to 90 | 60 to 90 |  |  | 
COc1ccc(C(=O)CN2CCN(C(=S)SC)CC2)c(OC)c1OC [Compound 71, Methyl 4-{2-(2,3,4-trimethoxyphenyl)-2-oxo}ethyl-1-piperazinecarbodithioate] | 60 to 90 | 30 to 60 |  |  | 
CSC(=S)N1CCN(CC(=O)c2ccc(O)c(O)c2)CC1 [Compound 72, Methyl 4-{2-(3,4-dihydroxyphenyl)-2-oxo}ethyl-1-piperazinecarbodithioate] |  |  | 74.8 | 58.2 | 
COc1cc(CN2CCN(C(=S)S)CC2)cc(OC)c1OC [Compound 89, Sodium 4-(3,4-5-trimethoxybenzyl)-1-piperazinecarbodithioate] |  |  |  |  | 90.2
COc1ccc(CN2CCN(C(=S)S)CC2)c(OC)c1OC [Compound 93, 4-(2,3,4-Trimethoxybenzyl)-1-piperazinecarbodithioic acid] | 90 to 100 | 90 to 100 |  |  | 
Oc1ccc(CN2CCN(C(=S)SCc3ccccc3)CC2)c(O)c1O [Compound 100, Benzyl 4-(2,3,4-trihydroxybenzyl)-1-piperazinecarbodithioate] |  | 30 to 60 |  |  | 
CSC(=S)N1CCN(Cc2c(O)c(O)cc3ccc(=O)oc23)CC1 [Compound 106, Methyl 4-(6,7-dihydroxycumarin-8-yl)methyl-1-piperazinecarbodithioate] |  |  | 89.0 | 88.1 | 
COc1cc(CN2CCN(C(=S)S)CC2)cc(OC)c1OC [Compound 108, 4-(3,4,5-Trimethoxybenzyl)-1-piperazinecarbodithioic acid] |  |  |  | 39.2 | 72.6
Oc1cc(CN2CCN(C(=S)S)CC2)cc(O)c1O [Compound 109, 4-(3,4,5-Trihydroxybenzyl)-1-piperazinecarbodithioic acid] |  |  | 74.9 | 24.2 | 
CSC(=S)N1CCN(CC2=CC(=O)C=CC2=O)CC1 [Compound 110, Methyl 4-(1,4-benzoquinonylmethyl)-1-piperazinecarbodithioate] | 90 to 100 | 90 to 100 |  |  | 
COC1=C(OC)C(=O)C(CN2CCN(C(=S)SC)CC2)=C(C)C1=O [Compound 118, Methyl 4-(5,6-dimethoxy-3-methyl-1,4-benzoquinonylmethyl)-1-piperazinecarbodithioate] | 60 to 90 | 30 to 60 |  |  | 
